# Earlier results, collected in patent US20240189459A1, “METASTABLE-FREE LANTHANIDE BASED CONTRAST AGENTS AND METHOD” (Inventure LLC, priority 2022, published 2024).
# Settings: thermodynamic stability constant of the DOTA complex with the listed metal ion
row,Stability Constant,Structure (SMILES)
1,17.2,O=C([O-])CN1CCN(CC(=O)[O-])CCN(CC(=O)O)CCN(CC(=O)O)CC1.[Ca+2] [Ca^+2]
2,22.3,O=C([O-])CN1CCN(CC(=O)[O-])CCN(CC(=O)[O-])CCN(CC(=O)[O-])CC1.[Cu+2] [Cu^+2]
3,24.8,O=C([O-])CN1CCN(CC(=O)[O-])CCN(CC(=O)[O-])CCN(CC(=O)[O-])CC1.[Dy+3] [Dy^+3]
4,23.5,O=C([O-])CN1CCN(CC(=O)[O-])CCN(CC(=O)[O-])CCN(CC(=O)[O-])CC1.[Eu+3] [Eu^+3]
5,29.4,O=C([O-])CN1CCN(CC(=O)[O-])CCN(CC(=O)[O-])CCN(CC(=O)[O-])CC1.[Fe+3] [Fe^+3]
6,24.7,O=C([O-])CN1CCN(CC(=O)[O-])CCN(CC(=O)[O-])CCN(CC(=O)[O-])CC1.[Gd+3] [Gd^+3]
7,11.9,O=C([O-])CN1CCN(CC(=O)[O-])CCN(CC(=O)O)CCN(CC(=O)O)CC1.[Mg+2] [Mg^+2]
8,4.2,O=C([O-])CN1CCN(CC(=O)O)CCN(CC(=O)O)CCN(CC(=O)O)CC1.[Na+] [Na^+1]
9,23,O=C([O-])CN1CCN(CC(=O)[O-])CCN(CC(=O)[O-])CCN(CC(=O)[O-])CC1.[Pr+3] [Pr^+3]
10,24.4,O=C([O-])CN1CCN(CC(=O)[O-])CCN(CC(=O)[O-])CCN(CC(=O)[O-])CC1.[Tm+3] [TM^+3]
11,20.8,O=C([O-])CN1CCN(CC(=O)[O-])CCN(CC(=O)O)CCN(CC(=O)O)CC1.[Zn+2] [Zn^+2]
